Test results as given in ChEMBL document CHEMBL3885881, “DrugMatrix”.

Species: Rattus norvegicus
Experiment: DrugMatrix - Regimen: Daily Repeat
Format: toxicity, organism-based, Sprague-Dawley
Design: regimen Daily Repeat, gender Male, age 6-8 weeks
Conditions: in vivo, po, route oral GAVAGE, […]; for URIC ACID / ALANINE AMINOTRANSFERASE / ALKALINE PHOSPHATASE / ASPARTATE AMINOTRANSFERASE / BLOOD UREA NITROGEN / CARBON DIOXIDE / CHLORIDE / CHOLESTEROL / CREATINE PHOSPHOKINASE / CREATININE / GLUCOSE / LACTATE DEHYDROGENASE / LIPASE / PHOSPHORUS / POTASSIUM / SODIUM / TOTAL BILIRUBIN / TOTAL PROTEIN: tissue Plasma; for ABSOLUTE BASOPHIL / ABSOLUTE EOSINOPHIL / ABSOLUTE LYMPHOCYTE / ABSOLUTE MONOCYTE / ABSOLUTE SEGMENTED NEUTROPHIL / BASOPHIL / EOSINOPHIL / ERYTHROCYTE COUNT / HEMATOCRIT / HEMOGLOBIN / LEUKOCYTE COUNT / LYMPHOCYTE / MEAN CORPUSCULAR HEMOGLOBIN / MEAN CORPUSCULAR HEMOGLOBIN CONCENTRATION / MEAN CORPUSCULAR VOLUME / MONOCYTE / NEUTROPHIL / NUCLEATED RED BLOOD CELLS / PLATELET COUNT: tissue Blood
[1] = 10 mg/kg, 120 h, dose level Low, time 5 day
[2] = 1100 mg/kg, 72 h, dose level High, time 3 day
[3] = 1100 mg/kg, 120 h, dose level High, time 5 day

SMILES: CCOC(=O)C1=C(C)NC(C)=C(C(=O)OC)C1c1cccc([N+](=O)[O-])c1 (stereo unspecified) [NITRENDIPINE]
- URIC ACID (10 mg/kg, 72 h, dose level Low, time 3 day): 0.7 mg/dL
- ABSOLUTE BASOPHIL [1]: 0 CELLS/uL
- ABSOLUTE EOSINOPHIL [1]: 0 CELLS/uL
- ABSOLUTE LYMPHOCYTE [1]: 10446 CELLS/uL
- ABSOLUTE MONOCYTE [1]: 116 CELLS/uL
- ABSOLUTE SEGMENTED NEUTROPHIL [1]: 1038 CELLS/uL
- BASOPHIL [1]: 0%
- EOSINOPHIL [1]: 0%
- ERYTHROCYTE COUNT [1]: 5.06 x10E6/uL
- HEMATOCRIT [1]: 32.77%
- HEMOGLOBIN [1]: 12.73 G/DL
- LEUKOCYTE COUNT [1]: 11.6 x10E3/uL
- LYMPHOCYTE [1]: 90%
- MEAN CORPUSCULAR HEMOGLOBIN [1]: 25.2 pg
- MEAN CORPUSCULAR HEMOGLOBIN CONCENTRATION [1]: 38.87 G/DL
- MEAN CORPUSCULAR VOLUME [1]: 64.8 fL
- MONOCYTE [1]: 1%
- NEUTROPHIL [1]: 9%
- NUCLEATED RED BLOOD CELLS [1]: 0 /100WBC
- PLATELET COUNT [1]: 1057 x10E3/uL
- ALANINE AMINOTRANSFERASE [1]: 72 u/L
- ALKALINE PHOSPHATASE [1]: 422.33 u/L
- ASPARTATE AMINOTRANSFERASE [1]: 98 u/L
- BLOOD UREA NITROGEN [1]: 15 mg/dL
- CARBON DIOXIDE [1]: 32.33 mmol/L
- CHLORIDE [1]: 101 MEQ/L
- CHOLESTEROL [1]: 70.67 mg/dL
- CREATINE PHOSPHOKINASE [1]: 376.67 u/L
- CREATININE [1]: 0.17 mg/dL
- GLUCOSE [1]: 143 mg/dL
- LACTATE DEHYDROGENASE [1]: 166.67 u/L
- LIPASE [1]: 9.67 u/L
- PHOSPHORUS [1]: 10.6 mg/dL
- POTASSIUM [1]: 5.57 MEQ/L
- SODIUM [1]: 144.07 MEQ/L
- TOTAL BILIRUBIN [1]: 0.23 mg/dL
- TOTAL PROTEIN [1]: 6.03 G/DL
- URIC ACID [1]: 0.53 mg/dL
- ABSOLUTE BASOPHIL [2]: 0 CELLS/uL
- ABSOLUTE EOSINOPHIL [2]: 21.67 CELLS/uL
- ABSOLUTE LYMPHOCYTE [2]: 8591 CELLS/uL
- ABSOLUTE MONOCYTE [2]: 68 CELLS/uL
- ABSOLUTE SEGMENTED NEUTROPHIL [2]: 719.33 CELLS/uL
- BASOPHIL [2]: 0%
- EOSINOPHIL [2]: 0.33%
- ERYTHROCYTE COUNT [2]: 5.96 x10E6/uL
- HEMATOCRIT [2]: 36.87%
- HEMOGLOBIN [2]: 14.27 G/DL
- LEUKOCYTE COUNT [2]: 9.4 x10E3/uL
- LYMPHOCYTE [2]: 91%
- MEAN CORPUSCULAR HEMOGLOBIN [2]: 23.93 pg
- MEAN CORPUSCULAR VOLUME [2]: 61.87 fL
- MONOCYTE [2]: 0.67%
- NEUTROPHIL [2]: 8%
- NUCLEATED RED BLOOD CELLS [2]: 0 /100WBC
- PLATELET COUNT [2]: 1329.67 x10E3/uL
- ALANINE AMINOTRANSFERASE [2]: 96.67 u/L
- ALKALINE PHOSPHATASE [2]: 346 u/L
- ASPARTATE AMINOTRANSFERASE [2]: 88.67 u/L
- BLOOD UREA NITROGEN [2]: 13.33 mg/dL
- CARBON DIOXIDE [2]: 30 mmol/L
- CHLORIDE [2]: 103.33 MEQ/L
- CHOLESTEROL [2]: 57.33 mg/dL
- CREATINE PHOSPHOKINASE [2]: 323.33 u/L
- CREATININE [2]: 0.14 mg/dL
- GLUCOSE [2]: 160 mg/dL
- LACTATE DEHYDROGENASE [2]: 142.67 u/L
- LIPASE [2]: 9.67 u/L
- PHOSPHORUS [2]: 9.8 mg/dL
- POTASSIUM [2]: 4.65 MEQ/L
- SODIUM [2]: 145.2 MEQ/L
- TOTAL BILIRUBIN [2]: 0.2 mg/dL
- TOTAL PROTEIN [2]: 5.2 G/DL
- URIC ACID [2]: 0.4 mg/dL
- ABSOLUTE BASOPHIL [3]: 0 CELLS/uL
- ABSOLUTE EOSINOPHIL [3]: 24.33 CELLS/uL
- ABSOLUTE LYMPHOCYTE [3]: 5730.33 CELLS/uL
- ABSOLUTE MONOCYTE [3]: 63.33 CELLS/uL
- ABSOLUTE SEGMENTED NEUTROPHIL [3]: 515.33 CELLS/uL
- BASOPHIL [3]: 0%
- EOSINOPHIL [3]: 0.33%
- ERYTHROCYTE COUNT [3]: 6.09 x10E6/uL
- HEMATOCRIT [3]: 37.57%
- HEMOGLOBIN [3]: 14.23 G/DL
- LEUKOCYTE COUNT [3]: 6.33 x10E3/uL
- LYMPHOCYTE [3]: 90.67%
- MEAN CORPUSCULAR HEMOGLOBIN [3]: 23.4 pg
- MEAN CORPUSCULAR HEMOGLOBIN CONCENTRATION [3]: 37.87 G/DL
- MEAN CORPUSCULAR VOLUME [3]: 61.7 fL
- MONOCYTE [3]: 1%
- NEUTROPHIL [3]: 8%
- NUCLEATED RED BLOOD CELLS [3]: 0 /100WBC
- PLATELET COUNT [3]: 1353.67 x10E3/uL
- ALANINE AMINOTRANSFERASE [3]: 65.67 u/L
- ALKALINE PHOSPHATASE [3]: 214.33 u/L
- ASPARTATE AMINOTRANSFERASE [3]: 85.67 u/L
- BLOOD UREA NITROGEN [3]: 11.67 mg/dL
- CARBON DIOXIDE [3]: 29 mmol/L
- CHLORIDE [3]: 102.67 MEQ/L
- CHOLESTEROL [3]: 58.33 mg/dL
- CREATINE PHOSPHOKINASE [3]: 328.33 u/L
- CREATININE [3]: 0.15 mg/dL
- GLUCOSE [3]: 133.67 mg/dL
- LACTATE DEHYDROGENASE [3]: 156.33 u/L
- LIPASE [3]: 11.67 u/L
- PHOSPHORUS [3]: 8.93 mg/dL
- POTASSIUM [3]: 4.8 MEQ/L
- SODIUM [3]: 147.07 MEQ/L
- TOTAL BILIRUBIN [3]: 0.2 mg/dL
- TOTAL PROTEIN [3]: 5.4 G/DL
- URIC ACID [3]: 0.47 mg/dL
